Measured values as given in PubChem BioAssay (NCI).
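Method: 48-hour compound exposure of cells in 96-well plates, five concentrations, linear interpolation of endpoints. TGI is the concentration that stops growth completely.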

Assays:
Test in all cases: NCI tumour cell line growth inhibition, 48 h
[1] = system: 786-0 renal
[2] = system: A549 NSCLC
[3] = system: ACHN renal
[4] = system: BT-549 breast
[5] = system: CAKI-1 renal
[6] = system: CCRF-CEM leukemia
[7] = system: COLO 205 colon
[8] = system: DU-145 prostate
[9] = system: EKVX NSCLC
[10] = system: HCC-2998 colon
[11] = system: HCT-116 colon
[12] = system: HCT-15 colon
[13] = system: HL-60(TB) leukemia
[14] = system: HOP-62 NSCLC
[15] = system: HOP-92 NSCLC
[16] = system: HS 578T breast
[17] = system: IGROV1 ovarian
[18] = system: KM12 colon
[19] = system: LOX IMVI melanoma
[20] = system: M14 melanoma
[21] = system: MCF7 breast
[22] = system: MDA-MB-231 breast
[23] = system: MDA-MB-435
[24] = system: MDA-N
[25] = system: MOLT-4 leukemia
[26] = system: NCI-H226 lung
[27] = system: NCI-H23 lung
[28] = system: NCI-H460 lung
[29] = system: NCI-H522 lung
[30] = system: NCI/ADR-RES ovarian
[31] = system: OVCAR-3 ovarian
[32] = system: OVCAR-4 ovarian
[33] = system: OVCAR-5 ovarian
[34] = system: OVCAR-8 ovarian
[35] = system: PC-3 prostate
[36] = system: RXF 393 renal
[37] = system: SF-268 CNS
[38] = system: SF-295 CNS
[39] = system: SF-539 CNS
[40] = system: SK-MEL-2 melanoma
[41] = system: SK-MEL-28 melanoma
[42] = system: SK-MEL-5 melanoma
[43] = system: SK-OV-3 ovarian
[44] = system: SN12C renal
[45] = system: SNB-19 CNS
[46] = system: SNB-75 CNS
[47] = system: SW-620 colon
[48] = system: TK-10 renal
[49] = system: U251 CNS
[50] = system: UACC-257 melanoma
[51] = system: UACC-62 melanoma
[52] = system: UO-31 renal
[53] = system: A498 renal
[54] = system: HT29 colon
[55] = system: MALME-3M melanoma
[56] = system: SR leukemia
[57] = system: K-562 leukemia
[58] = system: RPMI-8226 leukemia

In the case of `CCCCOC(=O)C(=O)C(CC(CC)C(=O)c1ccccc1)C(=O)C=C(C)C` (stereo not drawn), the TGI [1] is reported as > 100 µM, the TGI [2] is reported as > 100 µM and the TGI [3] is reported as > 100 µM. The TGI [4] was > 100 µM, the TGI [5] was > 100 µM and the TGI [6] was > 100 µM. The TGI [7] was > 100 µM, the TGI [8] was > 100 µM and the TGI [9] was > 100 µM. The TGI [10] was > 100 µM, the TGI [11] was > 100 µM and the TGI [12] was > 100 µM. The TGI [13] was > 100 µM, the TGI [14] was > 100 µM and the TGI [15] was > 100 µM. The TGI [16] was > 100 µM, the TGI [17] was > 100 µM and the TGI [18] was > 100 µM. For the same compound, the TGI [19] was > 100 µM, the TGI [20] was > 100 µM and the TGI [21] was > 100 µM. The TGI [22] was > 100 µM, the TGI [23] was > 100 µM and the TGI [24] was > 100 µM. For the same compound, the TGI [25] was > 100 µM, the TGI [26] was > 100 µM and the TGI [27] was > 100 µM. For the same compound, the TGI [28] was > 100 µM, the TGI [29] was > 100 µM and the TGI [30] was > 100 µM. For the same compound, the TGI [31] was > 100 µM, the TGI [32] was > 100 µM and the TGI [33] was > 100 µM. The TGI [34] was > 100 µM, the TGI [35] was > 100 µM and the TGI [36] was > 100 µM. The TGI [37] was > 100 µM, the TGI [38] was > 100 µM and the TGI [39] was > 100 µM. The TGI [40] was > 100 µM, the TGI [41] was > 100 µM and the TGI [42] was > 100 µM. For the same compound, the TGI [43] was > 100 µM, the TGI [44] was > 100 µM and the TGI [45] was > 100 µM. For the same compound, the TGI [46] was > 100 µM, the TGI [47] was > 100 µM and the TGI [48] was > 100 µM. For the same compound, the TGI [49] was > 100 µM, the TGI [50] was > 100 µM and the TGI [51] was > 100 µM. For the same compound, the TGI [52] was > 100 µM.

`c1ccc2c3ccn4ccc5c6ccccc6[nH]c5c4c-3nc2c1` was tested, and the TGI [53] was 3.02 µM, the TGI [2] was 1.26 µM and the TGI [3] was 2.74 µM. For the same compound, the TGI [4] was 3.6 µM, the TGI [5] was 2.93 µM and the TGI [7] was 1.79 µM. The TGI [8] was 2.73 µM, the TGI [9] was 2.72 µM and the TGI [10] was 0.879 µM. It also gave a TGI [11] of 1.69 µM, a TGI [12] of 1.38 µM and a TGI [13] of 2.43 µM. For the same compound, the TGI [14] was 2.76 µM, the TGI [15] was 3.12 µM and the TGI [16] was 5.23 µM. It also gave a TGI [54] of 1.11 µM, a TGI [17] of 2.83 µM and a TGI [18] of 2.3 µM. For the same compound, the TGI [19] was 0.316 µM, the TGI [20] was 3.79 µM and the TGI [55] was 3.06 µM. The TGI [21] was 2.65 µM, the TGI [22] was 1.31 µM and the TGI [23] was 2.89 µM. It also gave a TGI [24] of 2.69 µM, a TGI [27] of 3.61 µM and a TGI [28] of 0.63 µM. It also gave a TGI [29] of 3.27 µM, a TGI [30] of 4.27 µM and a TGI [31] of 0.315 µM. It also gave a TGI [32] of 0.552 µM, a TGI [33] of 2.92 µM and a TGI [34] of 0.638 µM. For the same compound, the TGI [35] was 2.71 µM, the TGI [38] was 3 µM and the TGI [39] was 2.98 µM. It also gave a TGI [40] of 3.13 µM, a TGI [41] of 3.2 µM and a TGI [42] of 2.8 µM. The TGI [43] was 3.02 µM, the TGI [44] was 2.68 µM and the TGI [45] was 2.93 µM. For the same compound, the TGI [46] was 2.98 µM, the TGI [56] was 0.625 µM and the TGI [47] was 0.34 µM. The TGI [48] was 4.2 µM, the TGI [49] was 0.0992 µM and the TGI [50] was 4.25 µM. For the same compound, the TGI [51] was 3.51 µM and the TGI [52] was 2.71 µM.

For `C=C1CCc2ccccc2C1=O`, the TGI [1] was > 100 µM, the TGI [53] was > 100 µM and the TGI [2] was > 100 µM. For the same compound, the TGI [3] was > 100 µM, the TGI [4] was > 100 µM and the TGI [5] was > 100 µM. The TGI [6] was > 100 µM, the TGI [7] was > 100 µM and the TGI [8] was > 100 µM. For the same compound, the TGI [9] was > 100 µM, the TGI [10] was > 100 µM and the TGI [11] was > 100 µM. The TGI [12] was > 100 µM, the TGI [13] was > 100 µM and the TGI [14] was > 100 µM. The TGI [15] was > 100 µM, the TGI [16] was > 100 µM and the TGI [54] was > 100 µM. For the same compound, the TGI [17] was > 100 µM, the TGI [57] was > 100 µM and the TGI [18] was > 100 µM. For the same compound, the TGI [20] was > 100 µM, the TGI [55] was > 100 µM and the TGI [21] was > 100 µM. For the same compound, the TGI [22] was > 100 µM, the TGI [23] was > 100 µM and the TGI [24] was > 100 µM. The TGI [25] was > 100 µM, the TGI [26] was > 100 µM and the TGI [27] was > 100 µM. For the same compound, the TGI [28] was > 100 µM, the TGI [29] was > 100 µM and the TGI [30] was > 100 µM. For the same compound, the TGI [31] was > 100 µM, the TGI [32] was > 100 µM and the TGI [33] was > 100 µM. For the same compound, the TGI [34] was > 100 µM, the TGI [35] was > 100 µM and the TGI [58] was > 100 µM. The TGI [36] was > 100 µM, the TGI [37] was > 100 µM and the TGI [38] was > 100 µM. The TGI [39] was > 100 µM, the TGI [40] was > 100 µM and the TGI [42] was > 100 µM. For the same compound, the TGI [43] was > 100 µM, the TGI [44] was > 100 µM and the TGI [45] was > 100 µM. The TGI [46] was > 100 µM, the TGI [56] was 78.9 µM and the TGI [47] was > 100 µM. The TGI [48] was > 100 µM, the TGI [49] was > 100 µM and the TGI [50] was > 100 µM. For the same compound, the TGI [51] was > 100 µM and the TGI [52] was > 100 µM.
